# Measured values published in patent publication US10426752B2, “Menthol-derivative compounds and use thereof as oral and systemic active agents” (priority 2009, dated 2019).
# Like-named read-outs stand apart in the source and are kept apart here.
# How the values were obtained:
# PGE2 = PGE2 assay (anti-inflammatory test, SOP No. ATO-5307-00); type: cell-based
# Method: The anti-inflammation test was carried out according to SOP No. ATO-5307-00 measuring the percent inhibition of PGE2.
# (§1) The bacterial anti-attachment activity of a selected radical of menthol carbonate/carbamate derivatives of the present invention was investigated using the crystal violate assay (SOP No. ATO-5345-00) in a 384-well plate over a 0.0004-2500 ppm concentration range. The anti-oxidant activity of the menthol carbonate/carbamate derivatives of the present invention was determined using the lipid peroxides assay (Kamiaya Biomedical Co., Seattle, Wash.) which is a colorimetric method that measures reduction of cumene hydroperoxide radicals. The anti-microbial test was performed according to the SOP No. ATO-5308-00 for determination of Minimal Inhibitory Concentration (MIC). The anti-inflammatory test was carried out according to SOP No. ATO-5307-00 measuring the percent inhibition of PGE2.
# The anti-inflammatory activity of 2-isopropyl-5-methylcyclohexyl 2-hydroxyphenyl carbamate was tested in PGE2 assay and compared to Triclosan.
# GM-CSF = assay: 5-plex assay by using Luminex: GM-CSF; type: cell-based; conditions: pure compounds
# Text: (§2) The menthol-derivative compound of the present invention was further evaluated in 5-plex assay by using luminex.
# IL-1b = assay: 5-plex assay by using Luminex: IL-1b; type: cell-based; conditions: pure compounds
# Text: as §2
# IL-6 = assay: 5-plex assay by using Luminex: IL-6; type: cell-based; conditions: for IL-6 (reduction of untreated control): pure compounds
# Text: as §2
# TNF-α = assay: 5-plex assay by using Luminex: TNF-α; type: cell-based; conditions: for TNF-α (reduction of untreated control): pure compounds
# Text: as §2
# [1] = Lipid peroxides assay (anti-oxidant activity); type: biochemical; conditions: in simple solution, FIG. 2
# Method: The anti-oxidant activity was determined using the lipid peroxidases assay (Kamiaya Biomedical Co., Seattle, Wash.) which is a colorimetric method that measures reduction of cumene hydroperoxide radicals.
# as §1
# MMP-13 mRNA = assay: Inhibition of MMP-13 mRNA expression stimulated by parathyroid hormone (PTH); type: cell-based; conditions: PTH for 4 hours, FIG. 4
# Method: The anti-MMP-13 activity was determined by measuring the inhibition of MMP-13 mRNA expression that is stimulated by parathyroid hormone (PTH).
# A.v = assay: Minimal Inhibitory Concentration (MIC) test, SOP No. ATO-5308-00; type: cell-based; conditions: for MIC: read-out: MIC (against A.v)
# Method: The anti-microbial test was measured according to the SOP No. ATO-5308-00 for determination of Minimal Inhibitory Concenctration (MIC).
# as §1
# [2] = Artificial mouth model (anti-microbial efficacy); conditions: FIG. 5
structure (smiles),measurement,setting,value
CC1CCC(C(C)C)C(OC(=O)Nc2ccccc2O)C1 (stereo not shown) [2-isopropyl-5-methylcyclohexyl 2-hydroxyphenyl carbamate],Anti-inflammatory activity in PGE2 assay (in words),PGE2; pure compound,comparable to Triclosan
same,IC50,"PGE2; pure compounds, PGE2 assay, read-out: IC50",380 nM
same,GM-CSF (reduction of untreated control),GM-CSF,6%
same,IL-1b (reduction of untreated control),IL-1b,13%
same,IL-6 production (in words),IL-6; pure compound,significantly inhibits
same,IL-6 (reduction of untreated control),IL-6,33%
same,TNF-α production (in words),TNF-α; pure compound,significantly inhibits
same,TNF-α (reduction of untreated control),TNF-α,81%
same,Anti-oxidant efficacy (in words),[1],comparable anti-oxidant efficacy with Vitamin E
same,MMP-13 mRNA stimulated by parathyroid hormone (in words),MMP-13 mRNA,significantly suppressed
same,Anti-microbial efficacy in MIC test (in words),A.v,good anti-microbial efficacy
same,MIC,A.v; in vitro,4.9 µg/mL
same,Anti-microbial efficacy in artificial mouth model (in words),[2],good anti-microbial efficacy
"Oc1cc(Cl)ccc1Oc1ccc(Cl)cc1Cl [Triclosan, 2,4,4-trichloro-2′-hydroxydiphenyl ether, reference compound]",IC50,PGE2,480 nM
same,GM-CSF (reduction of untreated control),GM-CSF,4%
same,IL-1b (reduction of untreated control),IL-1b,13%
same,IL-6 (reduction of untreated control),IL-6,37%
same,TNF-α (reduction of untreated control),TNF-α,58%
same,MIC,A.v,1.9 µg/mL
